Assay results taken from patent publication US20210369860A1, “FUNCTIONALIZED NANOPARTICLE FORMULATIONS FOR ORAL DRUG DELIVERY” (THE REGENTS OF THE UNIVERSITY OF COLORAD, priority 2018, published 2021).

Details: mouse, in vivo

CCCCCCCCCCCCCCCCCCN1C(=CC=CC=CC=CC2=[N+](CCCCCCCCCCCCCCCCCC)c3ccccc3C2(C)C)C(C)(C)c2ccccc21.[I-] [free DIR, 1,1′-Dioctadecyl-3,3,3′,3′-Tetramethylindotricarbo-cyanine Iodide]
IR signal in blood after IV injection: no signal was seen
